Source: patent US20210054106A1, “OMNIPHILIC NANO-VESICLES BASED ON MODIFIED POLYSACCHARIDES FOR DELIVERY OF ACTIVE AGENTS” (THE STATE OF ISRAEL, MINISTRY OF AGRICULTURE & RURAL …, priority 2018, published 2021)

Assay: Franz diffusion cell model, RB permeation
Type: in vitro ADME
Conditions: sunflower oil donor, PBS pH 7.4 receptor, 32 °C, up to 16 h

RB permeation across lipophilic membrane into aqueous phase: scarcely permeates
SMILES: CCN(CC)c1ccc2c(-c3ccccc3C(=O)O)c3ccc(=[N+](CC)CC)cc-3oc2c1.[Cl-] [RB, Rhodamine B]
